Results: paper PMC9332802, “Structure–Activity Relationship of New Chimeric Analogs of Mastoparan from the Wasp Venom Paravespula lewisii” (International Journal of Molecular Sciences, 2022)
≈ marks a conversion by molar mass, not a printed value. Where “and” joins values, the source holds several entries; their conditions need not be identical. Identical values can stand only once.

Tests used:
[1] = Circular dichroism spectroscopy, relative α-helix fraction; type: physicochemical; settings: CD, peptide 0.15 mg/mL, 25 °C, three scans averaged; for Relative α-helix fraction (fH), 0.1 M Tris + 50 mM SDS: 0.1 M Tris buffer pH 7.01 + 50 mM SDS, from mean residue ellipticity at 222 nm; for Relative α-helix fraction (fH), 50% TFE / Relative α-helix fraction (fH), water: from mean residue ellipticity at 222 nm (Rohl and Baldwin)
Experimental: Circular dichroism spectroscopy was applied to evaluate the conformational changes of peptides induced by membrane-mimetic environments. The secondary structures of MP and some of its MP analogs (Table 4) were determined in water, 50% 2,2,2-trifluoroethanol (TFE) and 0.1 M Tris buffer with the addition of 50 mM SDS. The relative α-helix fraction (fH) values presented in Table 4, calculated from the values of mean residue ellipticity at 222 nm, reflect the ability of peptides to adopt helical structure in the tested environments.
Circular dichroism (CD) spectra of peptides were recorded on a Jasco J-815 spectropolarimeter (Jasco Int. Co., Ltd., Tokyo, Japan). The CD spectra were acquired for peptides in a concentration of 0.15 mg/mL in water, 50% 2,2,2-trifluoroethanol (TFE) or 0.1 M tris(hydroxymethyl)aminomethane (Tris) buffer (pH 7.01) with the addition of 50 mM SDS (sodium dodecylsulphate) in 0.1 cm path length cuvettes. Measurements were taken at 25 °C in a spectral range of 193–260 nm with a bandwidth of 1 nm and response of 1 s. The spectra were averaged after three scans. Ellipticity was measured in mdeg units and converted to mean residue ellipticity (Θ). The relative helix content (fH) was calculated from the mean residue ellipticity values at 222 nm using the method proposed by Rohl and Baldwin [50] and described previously. Helical wheel projections (Figure 3) were made with HeliQuest https://heliquest.ipmc.cnrs.fr/ (accessed on 1 June 2022).

[2] = system: Staphylococcus aureus NCTC 4163; assay: microbe, parasite or virus in culture; type: cell-based; settings: broth microdilution (CLSI), Mueller–Hinton broth, 37 °C, peptide 0.125 to […], no visible growth, triplicate
Experimental: (§1) Antimicrobial activity of peptides was examined against three reference strains: Staphylococcus aureus NCTC 4163, Escherichia coli NCTC 8196 and Pseudomonas aeruginosae NCTC 6749 dedicated for the determination of antibacterial activity. The bacterial strains were stored in glycerol stock (Sigma-Aldrich, St. Louis, MO, USA) at −80 °C. Before testing, the strains were cultured aerobically in Tryptic Soy Agar (BD DIFCO, Franklin Lakes, NJ, USA) at 37 °C for 20 h. The susceptibility of microorganisms to the peptides was determined by the broth microdilution assay according to the procedures outlined by CLSI [49]. […] In order to prepare the bacterial suspension, an overnight culture of bacteria in Tryptic Soy Broth (BD DIFCO, Franklin Lakes, NJ, USA) was diluted in sterile saline to a final concentration of approximately 10^7 CFU/mL of bacteria. Aliquots (5 µL) of bacterial suspension were added to each peptide solution. The sterility control (containing the tested peptide in broth) and the growth control (containing the reference strain in broth without the tested peptide) were also set up. The plates were incubated at 37 °C under aerobic conditions. The results are expressed as the minimal inhibitory concentration (MIC) of the compounds in question. The MIC was defined as the lowest concentration at which no visible growth of bacteria (no turbidity) was observed. The assay was performed in triplicate.

[3] = system: Escherichia coli NCTC 8196; assay: microbe, parasite or virus in culture; type: cell-based; settings: broth microdilution (CLSI), Mueller–Hinton broth, 37 °C, peptide 0.125 to […], no visible growth, triplicate
Experimental: as §1

[4] = system: Pseudomonas aeruginosae NCTC 6749; assay: microbe, parasite or virus in culture; type: cell-based; settings: broth microdilution (CLSI), Mueller–Hinton broth, 37 °C, peptide 0.125 to […], no visible growth, triplicate
Experimental: as §1

CC[C@H](C)[C@H](NC(=O)[C@H](CCCCN)NC(=O)CNC(=O)[C@H](CC(C)C)NC(=O)[C@H](CC(C)C)NC(=O)[C@H](Cc1ccc(O)cc1)NC(=O)CNC(=O)[C@H](C)N)C(=O)N[C@@H](CC(N)=O)C(=O)N[C@@H](CC(C)C)C(=O)N[C@@H](CCCCN)C(=O)N[C@@H](C)C(=O)N[C@@H](CC(C)C)C(=O)N[C@@H](C)C(=O)N[C@@H](C)C(=O)N[C@@H](CC(C)C)C(=O)N[C@@H](C)C(=O)N[C@@H](CCCCN)C(=O)N[C@@H](CCCCN)C(=O)N[C@H](C(=O)N[C@@H](CC(C)C)C(=O)N[C@@H](Cc1ccc(O)cc1)C(=O)N[C@@H](CCCCN)C(=O)N1CCC[C@H]1C(=O)N[C@H](C(=O)N[C@H](C(=O)N[C@@H](CC(N)=O)C(=O)N[C@@H](Cc1ccccc1)C(N)=O)[C@@H](C)O)[C@@H](C)CC)[C@@H](C)CC [TP10-[Lys^2, Ile^4] RIP]
Relative α-helix fraction (fH), 0.1 M Tris + 50 mM SDS [1]: 0.31 | Relative α-helix fraction (fH), 50% TFE [1]: 0.29 | Relative α-helix fraction (fH), water [1]: 0.08 | MIC S. aureus [2]: 128 µg/mL (≈ 42 µM) | MIC E. coli [3]: >256 µg/mL | MIC P. aeruginosae [4]: >256 µg/mL

CC[C@H](C)[C@H](NC(=O)[C@H](CCCCN)NC(=O)[C@H](CCCCN)NC(=O)[C@H](C)NC(=O)[C@H](CC(C)C)NC(=O)[C@H](C)NC(=O)[C@H](C)NC(=O)[C@H](CC(C)C)NC(=O)[C@H](C)NC(=O)[C@H](CCCCN)NC(=O)[C@H](CC(C)C)NC(=O)[C@H](CC(N)=O)NC(=O)[C@@H](NC(=O)[C@H](CCCCNC(=O)Cn1c(-c2ccccn2)nc2ccccc21)NC(=O)CNC(=O)[C@H](CC(C)C)NC(=O)[C@H](CC(C)C)NC(=O)[C@H](Cc1ccc(O)cc1)NC(=O)CNC(=O)[C@H](C)N)[C@@H](C)CC)C(=O)N[C@@H](CC(C)C)C(N)=O [[Lys^7 (PBnzAc)] TP10]
Relative α-helix fraction (fH), 0.1 M Tris + 50 mM SDS [1]: 0.32 | Relative α-helix fraction (fH), 50% TFE [1]: 0.51 | Relative α-helix fraction (fH), water [1]: 0.14–0.19 and 0.15 | MIC S. aureus [2]: >256 µg/mL | MIC E. coli [3]: >256 µg/mL | MIC P. aeruginosae [4]: >256 µg/mL
